Source: ChEMBL document CHEMBL4043168, “The design and SAR of a novel series of 2-aminopyridine based LRRK2 inhibitors” (Bioorg Med Chem Lett, 2017)
Converted amounts (≈) assume the structure as drawn.

Experiments:
[1] = target: Leucine-rich repeat serine/threonine-protein kinase 2 (Homo sapiens, UniProt Q5S007, G2019S)
Description: Inhibition of recombinant human LRRK2 (970 to 2527 residues) G2019S mutant expressed in baculovirus preincubated for 30 mins followed by fluorescein-LRRKtide substrate addition after 2 hrs by TR-FRET assay

[2] = target: T1, Leucine-rich repeat serine/threonine-protein kinase 2 (Homo sapiens, UniProt Q5S007)
Description: Inhibition of recombinant human wild type GST-tagged LRRK2 (970 to 2527 residues) preincubated for 30 mins followed by fluorescein-LRRKtide substrate addition after 2 hrs by TR-FRET assay

[3] = target: T1, Leucine-rich repeat serine/threonine-protein kinase 2; assay: Inhibition of recombinant human wild type GST-tagged LRRK2 (970 to 2527 residues) at 66.7 uM preincubated for 30 mins followed by fluorescein-LRRKtide substrate addition after 2 hrs by TR-FRET assay relative to control
[4] = target: T1, Leucine-rich repeat serine/threonine-protein kinase 2; assay: Inhibition of recombinant human wild type GST-tagged LRRK2 (970 to 2527 residues) at 200 uM preincubated for 30 mins followed by fluorescein-LRRKtide substrate addition after 2 hrs by TR-FRET assay relative to control
[5] = test system: Leucine-rich repeat serine/threonine-protein kinase 2 (Homo sapiens), Q5S007 [G2019S]; conditions: at 40 µM
Description: Inhibition of recombinant human LRRK2 (970 to 2527 residues) G2019S mutant expressed in baculovirus at 40 uM preincubated for 30 mins followed by fluorescein-LRRKtide substrate addition after 2 hrs by TR-FRET assay

[6] = target: T1, Leucine-rich repeat serine/threonine-protein kinase 2; assay: Inhibition of recombinant human wild type GST-tagged LRRK2 (970 to 2527 residues) at 30 uM preincubated for 30 mins followed by fluorescein-LRRKtide substrate addition after 2 hrs by TR-FRET assay relative to control
[7] = Intrinsic clearance in human liver microsomes; format: ADME, microsome; conditions: read-out: CLH (converted)
[8] = Intrinsic clearance in rat liver microsomes; format: ADME, microsome; conditions: read-out: CLH (converted)
[9] = Apparent permeability in MDCK cells; format: ADME, cell-based, Canis lupus familiaris; conditions: dog
[10] = Efflux ratio of apparent permeability from basolateral to apical over apical to basolateral side in MDCK cells; format: ADME, cell-based, Canis lupus familiaris; conditions: dog
[11] = Aqueous solubility of the compound in pH 7.4; format: physicochemical; conditions: aqueous medium
[12] = test system: Leucine-rich repeat serine/threonine-protein kinase 2 (Homo sapiens), Q5S007 [G2019S]; conditions: at 200 µM
Description: Inhibition of recombinant human LRRK2 (970 to 2527 residues) G2019S mutant expressed in baculovirus at 200 uM preincubated for 30 mins followed by fluorescein-LRRKtide substrate addition after 2 hrs by TR-FRET assay

[13] = target: T1, Leucine-rich repeat serine/threonine-protein kinase 2; assay: Inhibition of recombinant human wild type GST-tagged LRRK2 (970 to 2527 residues) at 22 uM preincubated for 30 mins followed by fluorescein-LRRKtide substrate addition after 2 hrs by TR-FRET assay relative to control

Chain of Leucine-rich repeat serine/threonine-protein kinase 2 (Homo sapiens, UniProt Q5S007, G2019S) (Q5S007 whole entry G2019S): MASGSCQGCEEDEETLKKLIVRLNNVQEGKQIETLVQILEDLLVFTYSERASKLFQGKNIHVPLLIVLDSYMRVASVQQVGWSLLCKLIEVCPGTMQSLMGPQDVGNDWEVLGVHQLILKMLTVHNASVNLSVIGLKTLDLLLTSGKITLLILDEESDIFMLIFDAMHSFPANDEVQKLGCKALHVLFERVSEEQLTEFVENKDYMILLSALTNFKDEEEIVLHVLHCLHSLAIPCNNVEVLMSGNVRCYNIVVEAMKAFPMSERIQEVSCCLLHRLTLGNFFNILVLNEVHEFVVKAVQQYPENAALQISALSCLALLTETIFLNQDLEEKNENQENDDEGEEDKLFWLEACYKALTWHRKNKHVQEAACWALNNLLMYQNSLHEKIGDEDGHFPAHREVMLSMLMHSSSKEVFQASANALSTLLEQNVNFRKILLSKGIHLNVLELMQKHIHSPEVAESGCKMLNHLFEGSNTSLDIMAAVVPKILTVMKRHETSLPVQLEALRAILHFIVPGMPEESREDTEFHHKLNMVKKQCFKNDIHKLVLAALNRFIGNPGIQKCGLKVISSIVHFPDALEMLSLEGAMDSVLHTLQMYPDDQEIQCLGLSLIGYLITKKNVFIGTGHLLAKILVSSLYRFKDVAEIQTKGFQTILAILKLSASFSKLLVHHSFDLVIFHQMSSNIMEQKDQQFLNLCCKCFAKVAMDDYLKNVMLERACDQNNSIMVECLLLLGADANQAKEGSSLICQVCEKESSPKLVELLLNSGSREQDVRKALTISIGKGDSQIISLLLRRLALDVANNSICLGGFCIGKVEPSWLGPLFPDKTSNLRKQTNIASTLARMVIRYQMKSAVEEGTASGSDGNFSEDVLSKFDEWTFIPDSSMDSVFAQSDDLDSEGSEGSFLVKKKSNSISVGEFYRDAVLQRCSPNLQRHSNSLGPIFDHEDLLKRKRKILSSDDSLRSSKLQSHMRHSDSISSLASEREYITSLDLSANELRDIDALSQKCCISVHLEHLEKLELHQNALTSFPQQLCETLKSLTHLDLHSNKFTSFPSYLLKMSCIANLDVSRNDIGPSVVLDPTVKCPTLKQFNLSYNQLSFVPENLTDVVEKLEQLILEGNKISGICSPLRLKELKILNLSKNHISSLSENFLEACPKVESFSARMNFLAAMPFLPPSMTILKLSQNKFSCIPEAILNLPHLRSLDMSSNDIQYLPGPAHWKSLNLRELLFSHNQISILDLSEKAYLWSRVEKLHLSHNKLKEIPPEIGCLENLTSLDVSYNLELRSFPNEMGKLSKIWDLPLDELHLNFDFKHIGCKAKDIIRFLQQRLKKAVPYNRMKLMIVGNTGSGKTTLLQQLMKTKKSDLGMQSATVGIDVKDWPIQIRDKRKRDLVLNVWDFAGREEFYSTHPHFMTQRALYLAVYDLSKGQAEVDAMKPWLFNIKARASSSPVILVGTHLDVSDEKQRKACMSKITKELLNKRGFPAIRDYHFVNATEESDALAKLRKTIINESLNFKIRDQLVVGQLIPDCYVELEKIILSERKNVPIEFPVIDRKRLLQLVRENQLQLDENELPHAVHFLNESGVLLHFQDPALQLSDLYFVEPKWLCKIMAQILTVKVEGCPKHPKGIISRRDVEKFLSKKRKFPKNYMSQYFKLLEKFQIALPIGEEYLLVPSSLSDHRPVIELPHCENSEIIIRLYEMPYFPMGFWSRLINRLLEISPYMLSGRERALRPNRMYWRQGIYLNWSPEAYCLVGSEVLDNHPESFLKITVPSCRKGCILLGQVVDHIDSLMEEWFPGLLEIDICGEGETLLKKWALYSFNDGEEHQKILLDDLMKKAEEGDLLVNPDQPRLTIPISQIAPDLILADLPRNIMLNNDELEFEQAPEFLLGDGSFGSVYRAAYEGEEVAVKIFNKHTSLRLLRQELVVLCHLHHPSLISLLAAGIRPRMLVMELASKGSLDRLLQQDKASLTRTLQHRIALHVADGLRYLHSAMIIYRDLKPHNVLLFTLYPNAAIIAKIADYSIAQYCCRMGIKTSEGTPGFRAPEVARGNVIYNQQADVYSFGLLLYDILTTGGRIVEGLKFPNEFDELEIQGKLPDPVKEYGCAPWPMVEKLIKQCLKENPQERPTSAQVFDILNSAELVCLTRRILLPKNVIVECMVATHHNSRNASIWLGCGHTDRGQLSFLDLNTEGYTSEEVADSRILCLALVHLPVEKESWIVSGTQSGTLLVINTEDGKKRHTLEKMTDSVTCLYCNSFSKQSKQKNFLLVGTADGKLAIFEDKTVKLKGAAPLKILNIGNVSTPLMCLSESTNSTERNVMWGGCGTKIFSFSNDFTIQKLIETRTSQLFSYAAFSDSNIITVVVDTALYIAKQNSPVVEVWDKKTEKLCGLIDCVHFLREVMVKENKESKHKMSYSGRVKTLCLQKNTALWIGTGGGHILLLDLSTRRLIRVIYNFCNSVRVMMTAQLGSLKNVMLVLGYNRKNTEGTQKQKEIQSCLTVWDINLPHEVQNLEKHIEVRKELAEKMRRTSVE
T1 sequence (Q5S007 whole entry, the tested form may be a part): as the sequence (Q5S007 whole entry G2019S) above, with S2019G counted along it
Chain of Leucine-rich repeat serine/threonine-protein kinase 2 (Homo sapiens), Q5S007 [G2019S] (Q5S007 whole entry G2019S, the tested form may be a part): as the sequence (Q5S007 whole entry G2019S) above

| SMILES | IC50 [1] [µM] | IC50 [2] [µM] | other results |
| --- | --- | --- | --- |
| Cc1ccc(-c2cnc(N)c(-c3nnc(C4CC4)o3)c2)cc1 | 2.2 | 2.3 | – |
| Cc1ccc(-c2cnc(N)c(-c3cn[nH]c3)c2)cc1 | 13 | – | inhibition [3]: 72% |
| Cn1ccc(-c2cc(-c3ccc4[nH]ccc4c3)cnc2N)n1 | – | – | inhibition [4]: 48%; inhibition [5]: 65% |
| Nc1ncc(-c2ccc3[nH]ccc3c2)cc1-c1nnc(C2CC2)o1 | 1.6 | 1.3 | – |
| CCNc1nc(Nc2cc(F)c(C(=O)N3CCOCC3)cc2OC)ncc1C(F)(F)F | 0.046 | 0.097 | – |
| Cc1ccc(-c2cnc(N)c(-n3cc(C)nn3)c2)cc1 | 9.1 | – | inhibition [6]: 70% |
| Cc1ccc(-c2cnc(N)c(-c3cnn(C)c3)c2)cc1 | 6.7 | 16 | CLint scaled [7]: 100 mL/min/kg; CLint scaled [8]: 283 mL/min/kg; Papp [9]: 16.9 ×10⁻⁶ cm/s; efflux ratio [10]: 0.55; solubility [11]: 11 µg/mL (≈ 41.6 µM) |
| Cc1ccc(-c2cnc(N)c(-c3cn(C)cn3)c2)cc1 | 57 | – | inhibition [4]: 60% |
| CCn1cc(-c2cc(-c3ccc(C)cc3)cnc2N)cn1 | 12 | 12 | – |
| Cc1nnc(-c2cc(-c3ccc4[nH]ccc4c3)cnc2N)o1 | 3.6 | – | – |
| Cc1ccc(-c2cnc(N)c(-c3cnn(C)c3C)c2)cc1 | – | – | inhibition [4]: 49%; inhibition [12]: 62% |
| Cn1cc(-c2cc(-c3ccc4[nH]ccc4c3)cnc2N)cn1 | 13 | – | inhibition [4]: 75% |
| Cc1ccc(-c2cnc(N)c(-c3cnc(C)o3)c2)cc1 | 11 | 24 | – |
| CCc1nnc(-c2cc(-c3ccc4[nH]ccc4c3)cnc2N)o1 | 2.9 | – | inhibition [13]: 77% |
| Cn1cc(-c2cc(-c3ccc4c(ccn4C)c3)cnc2N)cn1 | 5.8 | – | inhibition [6]: 64% |
